Drawing on patent publication US10508088B2, “Methods using HDAC11 inhibitors” (FORMA Therapeutics, Inc., priority 2016, dated 2019), this text covers IC50 for 24 compounds.

Molecules are shown by their SMILES.

Sequence of Recombinant N-terminal GST tag full-length human HDAC11 (Q96DB2 whole entry): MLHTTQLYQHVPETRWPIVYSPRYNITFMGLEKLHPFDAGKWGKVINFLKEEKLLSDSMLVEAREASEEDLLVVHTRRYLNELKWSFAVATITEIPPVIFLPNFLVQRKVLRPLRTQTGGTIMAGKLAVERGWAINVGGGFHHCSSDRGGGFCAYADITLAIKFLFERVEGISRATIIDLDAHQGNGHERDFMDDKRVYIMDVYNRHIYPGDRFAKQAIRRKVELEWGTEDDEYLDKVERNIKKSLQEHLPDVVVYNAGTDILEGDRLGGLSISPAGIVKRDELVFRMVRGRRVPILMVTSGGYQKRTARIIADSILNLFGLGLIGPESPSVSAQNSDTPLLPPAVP

This assay has as its target Recombinant N-terminal GST tag full-length human HDAC11 (Homo sapiens (Human), UniProt Q96DB2). The experiment in a line: Probe binding HDAC11 assay, time resolved fluorescence (TRF). As to conditions: read-out: HDAC11 IC50 Range. The method, then:
The probe binding HDAC11 assay was performed using a time resolved fluorescence (TRF) assay format. Recombinant N-terminal GST tag full-length human HDAC11 was expressed and purified from baculovirus in Sf9 insect cells (SignalChem, # H93-30G-1000). Each assay was performed in 1536 black well microplates (Corning, #3936) in a final volume of 8 μL in assay buffer containing 50 mM HEPES (pH 7.5), 50 mM KCl, 50 mM NaCl, 0.5 mM GSH (L-Glutathione reduced, Sigma #G4251), 0.03% BGG (0.22 μM filtered, Sigma, #G7516-25G), and 0.01% Triton X-100 (Sigma, #T9284-10L). 100 nL of 10-point, 3-fold serial dilution in DMSO was pre-dispensed into respective wells of 1536 assay plates for a final test concentration range of 25 μM to 1.3 nM respectively. The final concentration in the assay of HDAC11 and probe (a fluorescein labeled HDAC 11 inhibitor) was 2.5 nM and 20 nM respectively. 4 μL of 2× probe and 2× anti-GST Terbium (Cisbio, #61GSTXLB) was added to assay plates followed by 4 μL of 2×HDAC11. Plates were incubated for 16 hours at room temperature before time resolved fluorescence was read on the Envision (Excitation at 340 nm, and Emission at 485 nm and 535 nm, Perkin Elmer).
Data from HDAC11 Assays were reported as percent inhibition (inh) compared with control wells based on the following equation: % inh=1−((FLU−AveLow)/(AveHigh−AveLow)) where FLU=measured time resolved fluorescence. AveLow=average time resolved fluorescence of no enzyme control (n=32). AveHigh=average time resolved fluorescence of DMSO control (n=32). IC50 values were determined by curve fitting of the standard 4 parameter logistic fitting algorithm included in the Activity Base software package: IDBS XE Designer Model205. Data is fitted using the Levenburg Marquardt algorithm.
The IC50 is the point on the concentration scale where inhibition reaches its midpoint. As for `CN(c1cccc(C(=O)NO)c1)c1nc2cc(C(F)(F)F)c(-c3ccccc3)cc2n1C` [Example 34-3, N-hydroxy-3-(methyl(1-methyl-6-phenyl-5-(trifluoromethyl)-1H-benzo[d]imidazol-2-yl)amino)benzamide], the IC50 was in the range of 500 to 1000 nM.

With `Cn1c(Nc2cccc(C(=O)NO)c2)nc2cc(-c3cccnc3)c(C(F)(F)F)cc21` [Example 35-1, N-hydroxy-3-((1-methyl-5-(pyridin-3-yl)-6-(trifluoromethyl)-1H-benzo[d]imidazol-2-yl)amino)benzamide], the IC50 is 500 to 1000 nM.

Turning to `Cn1c(Nc2cccc(C(=O)NO)c2)nc2cc(C(F)(F)F)c(-c3cccnc3)cc21` [Example 35-2, N-hydroxy-3-((1-methyl-6-(pyridin-3-yl)-5-(trifluoromethyl)-1H-benzo[d]imidazol-2-yl)amino)benzamide], the half-inhibitory concentration (IC50) was less than 500 nM.

For the compound `Cn1c(Nc2cccc(C(=O)NO)c2)nc2cc(C(F)(F)F)c(-c3ccccc3)cc21` [Example 35-3, N-hydroxy-3-((1-methyl-6-phenyl-5-(trifluoromethyl)-1H-benzo[d]imidazol-2-yl)amino)benzamide], the IC50 was less than 500 nM.

As for `O=C(NO)c1cccc(Nc2nc3cc(-c4ccccc4)c(C(F)(F)F)cc3[nH]2)c1` [Example 36-1, N-hydroxy-3-((5-phenyl-6-(trifluoromethyl)-1H-benzo[d]imidazol-2-yl)amino)benzamide], the concentration for half-maximal inhibition (IC50) was less than 500 nM.

`O=C(NO)c1cccc(Nc2nc3cc(C(F)(F)F)c(-c4cccnc4)cc3[nH]2)c1` [Example 36-2, N-hydroxy-3-((6-(pyridin-3-yl)-5-(trifluoromethyl)-1H-benzo[d]imidazol-2-yl)amino)benzamide]: the IC50 was less than 500 nM.

For `O=C(NO)c1cccc(Nc2nc3cc(-c4ccncc4)c(C(F)(F)F)cc3[nH]2)c1` [Example 36-3, N-hydroxy-3-((5-(pyridin-4-yl)-6-(trifluoromethyl)-1H-benzo[d]imidazol-2-yl)amino)benzamide], the IC50 is less than 500 nM.

Turning to `CCOc1cccc(-c2cc3[nH]c(Nc4cccc(C(=O)NO)c4)nc3cc2C(F)(F)F)c1` [Example 36-4, 3-((6-(3-ethoxyphenyl)-5-(trifluoromethyl)-1H-benzo[d]imidazol-2-yl)amino)-N-hydroxybenzamide], the 50% inhibitory concentration (IC50) was less than 500 nM.

As for `CSc1ccc(-c2cc3[nH]c(Nc4cccc(C(=O)NO)c4)nc3cc2C(F)(F)F)cc1` [Example 36-5, N-hydroxy-3-((6-(4-(methylthio)phenyl)-5-(trifluoromethyl)-1H-benzo[d]imidazol-2-yl)amino)benzamide], the IC50 was less than 500 nM.

Take `CN(C)C(=O)c1ccc(-c2cc3[nH]c(Nc4cccc(C(=O)NO)c4)nc3cc2C(F)(F)F)cc1` [Example 36-6, 4-(2-((3-(hydroxycarbamoyl)phenyl)amino)-5-(trifluoromethyl)-1H-benzo[d]imidazol-6-yl)-N,N-dimethylbenzamide]: the IC50 is less than 500 nM.

`COCc1ccc(-c2cc3[nH]c(Nc4cccc(C(=O)NO)c4)nc3cc2C(F)(F)F)cc1` [Example 36-7, N-hydroxy-3-((6-(4-(methoxymethyl)phenyl)-5-(trifluoromethyl)-1H-benzo[d]imidazol-2-yl)amino)benzamide]: the IC50 was less than 500 nM.

For `O=C(NO)c1cccc(Nc2nc3cc(C(F)(F)F)c(-c4ccc5ncccc5c4)cc3[nH]2)c1` [Example 36-8, N-hydroxy-3-((6-(quinolin-6-yl)-5-(trifluoromethyl)-1H-benzo[d]imidazol-2-yl)amino)benzamide], the IC50 was less than 500 nM.

Regarding `O=C(NO)c1cccc(Nc2nc3cc(C(F)(F)F)c(-c4ccc5c(c4)OCCO5)cc3[nH]2)c1` [Example 36-9, 3-((6-(2,3-dihydrobenzo[b][1,4]dioxin-6-yl)-5-(trifluoromethyl)-1H-benzo[d]imidazol-2-yl)amino)-N-hydroxybenzamide], the IC50 is less than 500 nM.

`O=C(NO)c1cccc(Nc2nc3cc(C(F)(F)F)c(-c4cccc(O)c4)cc3[nH]2)c1` [Example 36-10, N-hydroxy-3-((6-(3-hydroxyphenyl)-5-(trifluoromethyl)-1H-benzo[d]imidazol-2-yl)amino)benzamide]: the IC50 was less than 500 nM.

As for `O=C(NO)c1cccc(Nc2nc3cc(C(F)(F)F)c(-c4ccccc4CO)cc3[nH]2)c1` [Example 36-11, N-hydroxy-3-((6-(2-(hydroxymethyl)phenyl)-5-(trifluoromethyl)-1H-benzo[d]imidazol-2-yl)amino)benzamide], the IC50 was less than 500 nM.

For the compound `CN(C)c1ccc(-c2cc3[nH]c(Nc4cccc(C(=O)NO)c4)nc3cc2C(F)(F)F)cn1` [Example 36-12, 3-((6-(6-(dimethylamino)pyridin-3-yl)-5-(trifluoromethyl)-1H-benzo[d]imidazol-2-yl)amino)-N-hydroxybenzamide], the IC50 is less than 500 nM.

As to `O=C(NO)c1cccc(Nc2nc3cc(C(F)(F)F)c(-c4cnc(N5CCOCC5)nc4)cc3[nH]2)c1` [Example 36-13, N-hydroxy-3-((6-(2-morpholinopyrimidin-5-yl)-5-(trifluoromethyl)-1H-benzo[d]imidazol-2-yl)amino)benzamide], the IC50 is less than 500 nM.

With `O=C(NO)c1cccc(Nc2nc3cc(C(F)(F)F)c(-c4cccc(C(=O)N5CCOCC5)c4)cc3[nH]2)c1` [Example 36-14, N-hydroxy-3-((6-(3-(morpholine-4-carbonyl)phenyl)-5-(trifluoromethyl)-1H-benzo[d]imidazol-2-yl)amino)benzamide], the IC50 was less than 500 nM.

As for `O=C(NO)c1cccc(Nc2nc3cc(C(F)(F)F)c(-c4cc(F)ccc4CO)cc3[nH]2)c1` [Example 36-15, 3-((6-(5-fluoro-2-(hydroxymethyl)phenyl)-5-(trifluoromethyl)-1H-benzo[d]imidazol-2-yl)amino)-N-hydroxybenzamide], the half-inhibitory concentration (IC50) was less than 500 nM.

On to `COCc1cccc(-c2cc3[nH]c(Nc4cccc(C(=O)NO)c4)nc3cc2C(F)(F)F)c1` [Example 36-16, N-hydroxy-3-((6-(3-(methoxymethyl)phenyl)-5-(trifluoromethyl)-1H-benzo[d]imidazol-2-yl)amino)benzamide], for which the IC50 was less than 500 nM.

Consider `Cn1ncc2ccc(-c3cc4[nH]c(Nc5cccc(C(=O)NO)c5)nc4cc3C(F)(F)F)cc21` [Example 36-17, N-hydroxy-3-((6-(1-methyl-1H-indazol-6-yl)-5-(trifluoromethyl)-1H-benzo[d]imidazol-2-yl)amino)benzamide], for which the half-maximal inhibitory concentration (IC50) was less than 500 nM.

As to `CN(C)C(=O)c1cccc(-c2cc3[nH]c(Nc4cccc(C(=O)NO)c4)nc3cc2C(F)(F)F)c1` [Example 36-18, 3-(2-((3-(hydroxycarbamoyl)phenyl)amino)-5-(trifluoromethyl)-1H-benzo[d]imidazol-6-yl)-N,N-dimethylbenzamide], the IC50 is less than 500 nM.

On to `O=C(NO)c1cccc(Nc2nc3cc(C(F)(F)F)c(-c4ccc(N5CCOCC5)cc4)cc3[nH]2)c1` [Example 36-19, N-hydroxy-3-((6-(4-morpholinophenyl)-5-(trifluoromethyl)-1H-benzo[d]imidazol-2-yl)amino)benzamide], for which the IC50 is less than 500 nM.

Take `O=C(NO)c1cccc(Nc2nc3cc(C(F)(F)F)c(-c4ccoc4)cc3[nH]2)c1` [Example 36-20, 3-((6-(furan-3-yl)-5-(trifluoromethyl)-1H-benzo[d]imidazol-2-yl)amino)-N-hydroxybenzamide]: the half-inhibitory concentration (IC50) is less than 500 nM.
